# Reference: patent US9253979B2, “Methods of controlling insects” (priority 2010, dated 2016)
# Like-named read-outs stand apart in the source and are kept apart here.
# Assays:
# Format in all cases: in vivo, Drosophila melanogaster
# [1] = test system: Line 14 (susceptible wildtype control) Drosophila strain; test: Dosage mortality testing, first instar larvae, Line 14 strain; details: applied to insect diet, Probit analysis
# Procedure: (§1) Dosage mortality testing was conducted on four strains of Drosophila melanogaster. Each of the Drosophila strains tested had at least one lesion in one of the nAChR subunits or was a control strain lacking a lesion. […] The 4A4D Drosophila strain was a double mutant having lesions in both the Dα1 subunit and the Dβ2 subunit. The susceptible Drosophila strain or control Drosophila strain was the wildtype Drosophila strain in which the EMS lesions were generated, and is referred to in Tables 1-4 as the “Line 14” strain.
# Screening was performed on first instar larvae with five replicates of fifty larvae per vial at each concentration to determine the susceptibility of each Drosophila strain to the spinosyn composition and to an imidacloprid composition. The spinosyn composition (spinosad) included 85% spinosyn A and 15% spinosyn D in a sugar solution. Stock solutions were typically made 0.1% w/v in acetone and then diluted to lower concentrations. The spinosyn or imidacloprid compositions were then applied to the insect diet, allowed to dry and then infested with the insect larvae. […]
# [2] = test system: Dα1EMS1 Drosophila strain (lesion in the Dα1 nAChR subunit); test: Dosage mortality testing, first instar larvae, Dα1EMS1 strain; details: for Fold resistance: Dα1EMS1 strain relative to Line 14
# Procedure: as §1
# (§2) Screening was performed on first instar larvae with five replicates of fifty larvae per vial at each concentration to determine the susceptibility of each Drosophila strain to the spinosyn composition and to an imidacloprid composition. The spinosyn composition (spinosad) included 85% spinosyn A and 15% spinosyn D in a sugar solution. Stock solutions were typically made 0.1% w/v in acetone and then diluted to lower concentrations. The spinosyn or imidacloprid compositions were then applied to the insect diet, allowed to dry and then infested with the insect larvae.
# (§3) The concentrations of the spinosyn composition and the imidacloprid composition were selected across a range to provide data enabling the effective dose (ED) that produces a response in 50% of the first instar larvae (ED50) and the effective dose that produces a response in 90% of the first instar larvae (ED90) to be calculated. After administering the spinosyn composition or the imidacloprid composition, the first instar larvae were visually monitored for mortality. Data were analyzed using Probit analysis to determine the ED50 and the ED90, along with upper and lower 95% limits.
# [3] = test system: Dβ2EMS2 Drosophila strain (lesion in the Dβ2 subunit); test: Dosage mortality testing, first instar larvae, Dβ2EMS2 strain; details: for Fold resistance: Dβ2EMS2 strain relative to Line 14
# Procedure: as §1, §2, §3
# [4] = test system: 4A4D Drosophila strain (double mutant, lesions in both the Dα1 subunit and the Dβ2 subunit); details: for Fold resistance: 4A4D strain relative to Line 14
# Procedure: as §1, §2, §3
# [5] = Dα1EMS1 strain, first instar larvae, mortality, applied to insect diet, Probit analysis
# [6] = Dβ2EMS2 strain, first instar larvae, mortality, applied to insect diet, Probit analysis
# [7] = 4A4D strain, first instar larvae, mortality, applied to insect diet, Probit analysis
smiles,measurement,setting,value
"O=[N+]([O-])NC1=NCCN1Cc1ccc(Cl)nc1 [imidacloprid composition, imidacloprid]",ED50,[1],0.14 ppm
same,ED90,[1],0.28 ppm
same,ED50,[2]; [5],2.91 ppm
same,ED90,[2]; [5],5.77 ppm
same,Fold resistance,[2]; ED50 table,20.63
same,Fold resistance,[2]; ED90 table,20.63
same,ED50,[3]; [6],4.04 ppm
same,ED90,[3]; [6],8.02 ppm
same,Fold resistance,[3]; ED50 table,28.69
same,Fold resistance,[3]; ED90 table,28.70
same,ED50,[4]; [7],3.78 ppm
same,ED90,[4]; [7],7.49 ppm
same,Fold resistance,[4]; ED50 table,26.81
same,Fold resistance,[4]; ED90 table,26.81
